Common to all, as to assay: NCI anticancer screen, dose series, 48 h
Assay [1] concerns A498.
Assay [2] relates to ACHN.
Assay [3] concerns BT-549.
The subject of assay [4] is HOP-92.
Assay [5] deals with Hs-578T.
For assay [6], the system named is KM12.
For assay [7], the system named is M14.
The test system of assay [8] is MOLT-4.
The subject of assay [9] is NCI-H226.
Assay [10] deals with NCI-H23.
For assay [11], the system named is NCI-H460.
Assay [12] deals with NCI-H522.
The test system of assay [13] is OVCAR-4.
Assay [14] concerns OVCAR-8.
Assay [15] relates to SK-MEL-5.
For assay [16], the system named is SR.
The test system of assay [17] is T47D.
Assay [18] deals with TK-10.
Assay [19] has as its system UACC-62.
In assay [20] the test system is UO-31.

This is an account of results in ChEMBL document CHEMBL1201862, “PubChem BioAssay data set” (2004).

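Values below derive from 48-hour exposures of cells grown in 96-well plates, with endpoints linearly interpolated between the two concentrations bracketing the appropriate inhibition level. GI50 marks 50% less growth.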 Calls of active or inactive are those of the source. Cut-off read from the data, not from the text of the source: active = GI50 up to about 1.1 µM and inactive = higher.

For `CN(C)CCSS(=O)(=O)O`, the GI50 in assay [1], in assay [2], in assay [3], in assay [4], in assay [5] and in [6] was > 100 µM (inactive) each time. For the same compound, the GI50 in [7] was > 100 µM (inactive); in [8], > 100 µM (inactive); in assay [9] it was > 100 µM (inactive); in assay [10], > 100 µM (inactive); in assay [11] it was 16 µM (inactive); in assay [12], 83.9 µM (inactive). Moreover, the GI50 in assay [13], in assay [14], in assay [15], in [16], in [17] and in [18] was > 100 µM (inactive) throughout. Moreover, the GI50 in [19] and in assay [20] was > 100 µM (inactive) each time.

For `CCOC(=O)COC1=Nc2cc(OC)c(OC)c3nc(Cl)cc(c23)C1=O`, the GI50 in [1] was 11.4 µM (inactive); in [2], 1.66 µM (inactive); in [3], 1.95 µM (inactive); in assay [4] it was 1.7 µM (inactive); in assay [5] it was 2.77 µM (inactive); in assay [6] it was 14.8 µM (inactive). Further, the GI50 was 1.65 µM (inactive) in assay [7]; 0.383 µM (active) in assay [8]; 11.1 µM (inactive) in assay [9]; 2.25 µM (inactive) in [10]; 18.8 µM (inactive) in [11]; 1.6 µM (inactive) in assay [12]. The GI50 in assay [13] was 1.67 µM (inactive); in assay [14] it was 2.43 µM (inactive); in [15], 1.88 µM (inactive); in assay [16], 0.94 µM (active); in assay [17], 2.96 µM (inactive); in assay [18], 1.96 µM (inactive). In addition, the GI50 in [19] is 1.78 µM (inactive); in assay [20], 1.84 µM (inactive).

Take `COC(O)C12OC3CO[Si](C(C)C)(C(C)C)O[Si](C(C)C)(C(C)C)OC3C1Oc1nc(=O)ccn12` (stereo not given): the GI50 in assay [1] was 17.3 µM (inactive); in assay [2], 14.1 µM (inactive); in [3], 15.5 µM (inactive); in assay [4], 10.1 µM (inactive); in assay [5] it was 2.67 µM (inactive); in assay [6], 5.61 µM (inactive). The GI50 in assay [7] was 12.7 µM (inactive); in [8] it was 2.15 µM (inactive); in assay [9] it was 17.7 µM (inactive); in assay [10], 14.3 µM (inactive); in [11] it was 11.3 µM (inactive); in assay [12], 4.88 µM (inactive). The GI50 in assay [13] is 14.2 µM (inactive); in assay [14] it was 11.2 µM (inactive); in assay [15], 7.87 µM (inactive); in assay [16] it was 1.23 µM (inactive); in assay [17], 7.69 µM (inactive); in [18], 14.3 µM (inactive). Also, the GI50 was 11 µM (inactive) in assay [19] and 15.8 µM (inactive) in assay [20].

Take `Nc1ccc2c(SCC(=O)Nc3ccccc3-c3ccccc3NC(=O)CSc3c4ccccc4nc4cc(N)ccc34)c3ccccc3nc2c1`: the GI50 is 29.9 µM (inactive) in assay [1]; 32.8 µM (inactive) in assay [2]; 42 µM (inactive) in assay [3]; 43.5 µM (inactive) in [4]; > 59.3 µM (inactive) in assay [5]; 19.5 µM (inactive) in assay [6]. In addition, the GI50 is 24.4 µM (inactive) in assay [7]; 3.35 µM (inactive) in assay [8]; 29.3 µM (inactive) in assay [9]; 18 µM (inactive) in assay [10]; 29.2 µM (inactive) in assay [11]; 6.52 µM (inactive) in assay [12]. Besides, the GI50 in [13] is 29 µM (inactive); in [14], 26.3 µM (inactive); in [15] it was 14.6 µM (inactive); in assay [16], 4.19 µM (inactive); in assay [17], 3.05 µM (inactive); in assay [18] it was 38 µM (inactive). Moreover, the GI50 is 18.9 µM (inactive) in [19] and 20 µM (inactive) in assay [20].

As to `O=C1c2cccc3cccc(c23)C(=O)N1CCCNCCCCNCCCN1C(=O)c2cccc3cccc(c23)C1=O`, the GI50 was 0.946 µM (active) in assay [1]; 0.757 µM (active) in [2]; 1.25 µM (inactive) in [3]; 0.18 µM (active) in [4]; 0.0401 µM (active) in assay [5]; 0.108 µM (active) in [6]. In addition, the GI50 in assay [7] is 0.604 µM (active); in [8] it was < 0.01 µM (active); in assay [9] it was 0.748 µM (active); in assay [10], 0.0944 µM (active); in [11] it was 0.0194 µM (active); in [12], < 0.0112 µM (active). Moreover, the GI50 in assay [13] is 0.2 µM (active); in assay [14], 0.177 µM (active); in [15] it was 0.644 µM (active); in assay [16], < 0.01 µM (active); in [17], 0.515 µM (active); in [18], 1.57 µM (inactive). Also, the figures for the GI50 in assay [19] and in assay [20] were 0.337 µM (active) and 2.26 µM (inactive), respectively.

`Cc1cc2c(nn1)-c1ccccc1C2=O`: the GI50 in assay [1], in assay [2], in assay [3], in assay [4], in assay [5] and in assay [6] was > 10 µM (inactive) each time. Further, the GI50 in assay [7], in assay [8], in assay [9], in [10], in assay [11] and in assay [12] was > 10 µM (inactive) in each case. For the same compound, the GI50 in assay [13], in assay [14], in assay [15], in assay [16], in assay [17] and in assay [18] was > 10 µM (inactive) each time. Moreover, the GI50 in assay [19] and in [20] was > 10 µM (inactive) in each case.
